In the PolyMetriX glass transition set:
± gives the standard deviation of the reports.

Row | glass transition temperature [°C] | Compound
1 | 145.00 | *c1ccc(Oc2ccc(N3C(=O)C(C)C(SCCOCCSC4C(=O)N(c5ccc(Oc6ccc(N7C(=O)CC(C)(SCCOCCSC8(C)CC(=O)N(*)C8=O)C7=O)cc6)cc5)C(=O)C4C)C3=O)cc2)cc1 (repeat unit)
2 | 98.00 | *OC(=O)c1ccc(C(F)(F)C(F)(F)C(F)(F)c2ccc(C(*)=O)cc2)cc1 (repeat unit)
3 | 236.00 | *c1ccc(Oc2ccc(Oc3ccc(N4C(=O)c5ccc(Oc6ccc(C7(c8ccc(Oc9ccc%10c(c9)C(=O)N(*)C%10=O)cc8)CCC(c8ccccc8)CC7)cc6)cc5C4=O)cc3)c(C(C)(C)C)c2)cc1 (repeat unit)
4 | 56.00 | *CCCOCCCCOCCCN1C(=O)c2ccc(C(=O)Oc3ccc(OC(=O)c4ccc5c(c4)C(=O)N(*)C5=O)cc3)cc2C1=O (repeat unit)
5 | 32.40 | *O[Si](*)(C)CCCCCCCCCCC(=O)Oc1ccc(C(=O)Oc2ccc(-c3ccc(OC(=O)CCCCC(=O)OC4CC(C)CCC4C(C)C)cc3)cc2)cc1 (repeat unit)
6 | 201.00 | *c1ccc(Oc2ccc(S(=O)(=O)c3ccc(Oc4ccc(N5C(=O)c6ccc(Oc7cccc8c(Oc9ccc%10c(c9)C(=O)N(*)C%10=O)cccc78)cc6C5=O)cc4)cc3)cc2)cc1 (repeat unit)
7 | 261.00 | *c1ccc(Oc2ccc(C(c3ccccc3)(c3ccccc3)c3ccc(Oc4ccc(-c5nc(*)nc(-c6ccccc6)n5)cc4)cc3)cc2)cc1 (repeat unit)
8 | 101.00 | *CCCCCCCCCCCCN1C(=O)c2ccc(C(c3ccc4c(c3)C(=O)N(*)C4=O)(C(F)(F)F)C(F)(F)F)cc2C1=O (repeat unit)
9 | 85.00 | *C#Cc1cccc(C#C[SiH](*)c2ccccc2)c1 (repeat unit)
10 | 16.60 | *CCCCCCOC(=O)OCCCCCCOC(=O)OCCCCCCOc1ccc(-c2ccc(O*)cc2)cc1 (repeat unit)
11 | 36.00 | *CCCNC(=O)CNC(=O)C(Cc1ccccc1)NC(=O)CCCCCCCCC(=O)NC(Cc1ccccc1)C(=O)NCC(=O)NCCCOCCOCCO* (repeat unit)
12 | 275.00 | *CCOc1ccc(C(=O)Nc2cc(NC(=O)c3ccc(O*)cc3)cc(-c3nc4ccccc4[nH]3)c2)cc1 (repeat unit)
13 | 235.00 | *Oc1ccc(S(=O)(=O)c2ccc(OC(=O)c3ccc([Si](C)(C)c4ccc(C(*)=O)cc4)cc3)cc2)cc1 (repeat unit)
14 | 27.00 | *CC(F)(F)C(F)(F)C(F)(F)COC(=O)c1cc(C(=O)O*)cc(C(F)(F)C(F)(F)C(F)(F)C(F)(F)C(F)(F)C(F)(F)C(F)(F)F)c1 (repeat unit)
15 | 20.00 | *Oc1c(C)cc(*)cc1C(C)CCCCCCCC (repeat unit)
16 | 352.50 | *CCOC(=O)C1=CCCCC(N2CCCC2)=C1C(=O)O* (repeat unit)
17 | 158.00 | *CC(*)(CC(=O)OC(C)C)C(=O)OC12CC3CC(C)(CC(C)(C3)C1)C2 (repeat unit)
18 | 122.00 | *CC(*)c1ccc(COc2ccc(-c3ccc(-c4ccc(-c5ccc(CCCCCC)s5)s4)c4nsnc34)cc2)cc1 (repeat unit)
19 | 220.00 | *CC(*)c1ccc(B(Oc2ccc(-c3ccc(OC)cc3)c3cccnc23)c2ccc(C(C)(C)C)cc2)cc1 (repeat unit)
20 | -83.00 | *O[Si](C)(C)O[Si](C)(C)O[Si](*)(C)c1c(F)c(F)c(F)c(F)c1F (repeat unit)
21 | 130.00 | *Nc1ccc(NC(=O)CCCCCCCC(*)=O)cc1 (repeat unit)
22 | 207.00 | *C(=O)Nc1ccc(Oc2cccc(Oc3ccc(NC(=O)c4ccc5c(c4)C(=O)N(c4cccc(Oc6cccc(Oc7cccc(N8C(=O)c9ccc(*)cc9C8=O)c7)c6C#N)c4)C5=O)cc3)c2)cc1 (repeat unit)

Row | Compound | glass transition temperature [°C]
23 | *CC(*)(F)C(F)(F)F (repeat unit) | 49.00
24 | *CC(*)c1ccc(COC)cc1 (repeat unit) [Poly(p-methoxymethyl styrene)] | 77 ± 0.6
